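96-well plates; 48 h exposure; 5 concentrations. Endpoints by linear interpolation between flanking doses. Not reached: highest tested concentration assigned. Definition used: TGI = concentration required for complete inhibition of growth.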

Test systems include CCRF-CEM leukemia; COLO 205 colon; DU-145 prostate; HCT-15 colon; HOP-92 NSCLC; HS 578T breast; MOLT-4 leukemia; OVCAR-5 ovarian; SF-295 CNS; SK-MEL-5 melanoma; SW-620 colon; T-47D breast; U251 CNS; HCT-116 colon.
Assay in all cases: NCI anticancer screen, dose series, 48 h

For the compound `O=C(O)c1c2c(cc3c1CC1(Cc4ccccc4C1)C3)CCC2`, the TGI was 66.7 µM in the assay on CCRF-CEM leukemia; above 100 µM with COLO 205 colon; above 100 µM with DU-145 prostate; above 100 µM in the assay on HCT-15 colon; 52.5 µM in the assay on HOP-92 NSCLC; above 100 µM in the assay on HS 578T breast. The TGI in the assay on MOLT-4 leukemia, in the assay on OVCAR-5 ovarian, in the assay with SF-295 CNS, with SK-MEL-5 melanoma, in the assay with SW-620 colon and in the assay with T-47D breast was above 100 µM throughout. Besides, the TGI in the assay with U251 CNS was above 100 µM.

Take `Cc1ccc(C(=O)Nc2ccc(CP(=O)(O)O)cc2CP(=O)(O)O)cc1NC(=O)c1cccc(N)c1`: the TGI in the assay with CCRF-CEM leukemia, with COLO 205 colon, in the assay with DU-145 prostate, in the assay on HCT-116 colon, in the assay with HCT-15 colon and in the assay on HS 578T breast was above 100 µM each time. The TGI in the assay with MOLT-4 leukemia, in the assay on OVCAR-5 ovarian, in the assay with SF-295 CNS, in the assay on SK-MEL-5 melanoma, with SW-620 colon and with T-47D breast was above 100 µM each time. The same compound gave a TGI in the assay on U251 CNS above 100 µM.

On to `COc1ccc(-n2c(=O)c3[nH]cnc3n(-c3ccc(OC)cc3)c2=S)cc1`, for which the TGI in the assay with CCRF-CEM leukemia, in the assay on COLO 205 colon, in the assay with DU-145 prostate, in the assay with HCT-116 colon, in the assay with HCT-15 colon and in the assay with HOP-92 NSCLC was above 100 µM each time. Moreover, the TGI in the assay with MOLT-4 leukemia, with OVCAR-5 ovarian, in the assay on SF-295 CNS, in the assay on SK-MEL-5 melanoma, in the assay on SW-620 colon and with T-47D breast was above 100 µM in each case. Also, the TGI in the assay with U251 CNS is above 100 µM.

With `O=C(O)CSc1nnc(COc2ccc(Cl)cc2)n1-c1ccccc1`, the TGI with CCRF-CEM leukemia, in the assay with COLO 205 colon, in the assay with DU-145 prostate, in the assay on HCT-116 colon, in the assay on HCT-15 colon and with HOP-92 NSCLC was above 100 µM throughout. In addition, the TGI in the assay on MOLT-4 leukemia, in the assay with OVCAR-5 ovarian, in the assay with SF-295 CNS, with SW-620 colon, with T-47D breast and in the assay with U251 CNS was above 100 µM in each case.

For `CN(C)/N=N/c1nc2c(c(=O)n(C)c(=O)n2C)n1C`, the TGI in the assay on CCRF-CEM leukemia, with COLO 205 colon, in the assay on DU-145 prostate, in the assay with HCT-116 colon, in the assay on HCT-15 colon and in the assay on HS 578T breast was above 100 µM throughout. For the same compound, the TGI in the assay with MOLT-4 leukemia, in the assay with OVCAR-5 ovarian, in the assay with SF-295 CNS, with SK-MEL-5 melanoma, with SW-620 colon and in the assay with T-47D breast was above 100 µM throughout. Further, the TGI with U251 CNS is above 100 µM.

With `COc1ccccc1N/C(=C\C(=O)C(=O)NC12CC3CC(CC(C3)C1)C2)c1ccccc1`, the TGI in the assay on CCRF-CEM leukemia, with COLO 205 colon, with DU-145 prostate, in the assay with HCT-15 colon, in the assay with HS 578T breast and in the assay with MOLT-4 leukemia was above 10 µM each time. Also, the TGI in the assay with OVCAR-5 ovarian, in the assay on SF-295 CNS, with SK-MEL-5 melanoma, in the assay on SW-620 colon, in the assay on T-47D breast and in the assay with U251 CNS was above 10 µM in each case.

As for `CN1C(=O)C2C(=O)N(Cc3ccccc3)CC(=O)N2c2cccnc21` (configuration not stated), the TGI with CCRF-CEM leukemia, in the assay on COLO 205 colon, in the assay with HCT-116 colon, with HCT-15 colon, in the assay with HOP-92 NSCLC and with HS 578T breast was above 100 µM each time. Besides, the TGI in the assay on MOLT-4 leukemia, with OVCAR-5 ovarian, in the assay with SF-295 CNS, in the assay with SK-MEL-5 melanoma, with T-47D breast and with U251 CNS was above 100 µM in each case.

As for `Cc1cc(N(CCC#N)CCC#N)ccc1/C=N/NC(=O)c1cc(Cl)ccc1O`, the TGI in the assay on CCRF-CEM leukemia, in the assay on COLO 205 colon, with DU-145 prostate, in the assay on HCT-116 colon, with HCT-15 colon and in the assay with HS 578T breast was above 100 µM in each case. In addition, the TGI in the assay with MOLT-4 leukemia, with OVCAR-5 ovarian, in the assay on SF-295 CNS, in the assay on SK-MEL-5 melanoma, in the assay on T-47D breast and in the assay with U251 CNS was above 100 µM in each case.

Turning to `CC(C)(C)c1ccc2c(c1)CNCCNCc1cc(C(C)(C)C)ccc1OCC1(CO2)COc2ccc(C(C)(C)C)cc2CNCCNCc2cc(C(C)(C)C)ccc2OC1`, the TGI in the assay on CCRF-CEM leukemia stood at 0.68 µM; in the assay with COLO 205 colon, 2.29 µM; in the assay with DU-145 prostate, 3.15 µM; in the assay with HCT-116 colon, 2.99 µM; in the assay with HCT-15 colon, 2.17 µM; in the assay with HOP-92 NSCLC it was 2.58 µM. The TGI in the assay on MOLT-4 leukemia was found to be 0.504 µM; in the assay with OVCAR-5 ovarian, 3.06 µM; in the assay on SF-295 CNS, 1.97 µM; in the assay on SK-MEL-5 melanoma, 3.37 µM; in the assay on SW-620 colon it was 3.56 µM; in the assay on T-47D breast it was 3.73 µM. This compound also came in with a TGI in the assay on U251 CNS of 0.479 µM.

`CC(CN1c2ccccc2Sc2ccccc21)N(C)C` (configuration not stated): the TGI in the assay with CCRF-CEM leukemia stood at 40.1 µM; with COLO 205 colon, 29.2 µM; in the assay on DU-145 prostate, 34.9 µM; in the assay with HCT-116 colon, 28.9 µM; in the assay with HCT-15 colon it was 35.1 µM; in the assay on HOP-92 NSCLC, 35.4 µM. Besides, the TGI amounted to 40.7 µM with MOLT-4 leukemia; 32.8 µM with OVCAR-5 ovarian; 28.9 µM in the assay with SF-295 CNS; 35.6 µM in the assay with SK-MEL-5 melanoma; 45 µM with SW-620 colon; 41.6 µM with T-47D breast. The TGI with U251 CNS worked out at 27.7 µM.

For the compound `O=C(CC(=O)n1nc(-c2ccccc2)c(N=Nc2ccccc2C(=O)O)c1-c1ccccc1)Nc1ccc(Cl)cc1`, the TGI in the assay on COLO 205 colon is above 100 µM; with HCT-116 colon it was above 100 µM; in the assay with HCT-15 colon, above 100 µM; in the assay with HOP-92 NSCLC it was 42.2 µM; in the assay on HS 578T breast, above 100 µM; in the assay on MOLT-4 leukemia, 27.9 µM. Further, the TGI with OVCAR-5 ovarian, with SK-MEL-5 melanoma, in the assay on SW-620 colon, with T-47D breast and in the assay with U251 CNS was above 100 µM throughout.

Values taken from PubChem BioAssay (NCI).
